Measured values: PubChem BioAssay (NCI)
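Results reflect a 48-hour exposure of cells in 96-well plates to compound at five concentrations. Abbreviation: GI50, concentration required for 50% inhibition of growth. TGI denotes the concentration required for complete inhibition of growth.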

Assays:
Experiment in all cases: growth of human tumour cells (NCI), 48 h
ACHN renal = test system: ACHN renal
SK-MEL-5 melanoma = test system: SK-MEL-5 melanoma
UACC-257 melanoma = test system: UACC-257 melanoma
M14 melanoma = test system: M14 melanoma
MOLT-4 leukemia = test system: MOLT-4 leukemia
RPMI-8226 leukemia = test system: RPMI-8226 leukemia
HCC-2998 colon = test system: HCC-2998 colon
SF-295 CNS = test system: SF-295 CNS
HCT-15 colon = test system: HCT-15 colon
SR leukemia = test system: SR leukemia

Structure (SMILES) | GI50 (ACHN renal) | TGI (ACHN renal) | GI50 (SK-MEL-5 melanoma) | TGI (SK-MEL-5 melanoma) | GI50 (UACC-257 melanoma) | TGI (UACC-257 melanoma) | GI50 (M14 melanoma) | TGI (M14 melanoma) | GI50 (MOLT-4 leukemia) | TGI (MOLT-4 leukemia) | GI50 (RPMI-8226 leukemia) | TGI (RPMI-8226 leukemia) | GI50 (HCC-2998 colon) | TGI (HCC-2998 colon) | GI50 (SF-295 CNS) | TGI (SF-295 CNS) | GI50 (HCT-15 colon) | TGI (HCT-15 colon) | GI50 (SR leukemia) | TGI (SR leukemia)
COc1ccc(-c2ccc(-c3ccc(C(=N)N)o3)o2)cc1 | 1.8 µM | 4.2 µM | 2.8 µM | 12.1 µM | 11.1 µM | 24.7 µM | 1.47 µM | 3.87 µM | 1.2 µM | 4.3 µM | 2.68 µM | 7.85 µM | 1.58 µM | 3.23 µM | 1.68 µM | 3.51 µM | 0.675 µM | 4.72 µM | 0.417 µM | 2.79 µM
O=C1c2ccccc2-c2c1c1ccccc1c(=O)n2CCCn1ccnc1 | 0.885 µM | 3.43 µM |  |  |  |  | 5.71 µM | > 100 µM | 0.274 µM | 0.763 µM | 0.73 µM | 6.26 µM |  |  | 0.896 µM | 2.99 µM | 1.9 µM | > 100 µM |  | 
CCNC(=O)O[C@H]1CN[C@H](C#Cc2cc3ncnc(Nc4ccc(OCc5cccc(F)c5)c(Cl)c4)c3s2)C1 | 1.99 µM | > 25 µM | 10.2 µM | > 25 µM | > 22.7 µM | > 25 µM | > 22.6 µM | > 25 µM | 4.58 µM | > 25 µM | 5.41 µM | > 23.4 µM | 4.91 µM | 15.5 µM | 8.13 µM | > 25 µM | 9.83 µM | > 25 µM | 6.99 µM | > 25 µM
Cc1cnc(C(=O)Nc2nc3ccc(S(=O)(=O)Nc4ccc(C5(C(F)(F)F)CC5)cc4)cc3[nH]2)cn1 | 0.552 µM | 14 µM | 0.232 µM | 3.85 µM | 5.13 µM | 29.9 µM | 0.328 µM | 2.74 µM | 0.501 µM | 14.5 µM | 0.354 µM | 6.86 µM | 1.13 µM | 10.4 µM | 0.237 µM | 3.27 µM | 0.205 µM | 5.09 µM | 0.0777 µM | > 39.5 µM
OCC#Cc1ccccc1C#CCCCCCC#Cc1ccccc1C#CCO | 27.1 µM | 54 µM | 18.9 µM | 33.1 µM | 15.7 µM | 31.4 µM | 15.4 µM | 29.2 µM | 15.6 µM | 37.3 µM |  |  |  |  | 16.9 µM | 33.8 µM | 15.9 µM | 30.7 µM | 18.1 µM | 40.7 µM
C=C1C(=O)O[C@H]2[C@H]1CC/C(Cn1cc(-c3ccccc3C(F)(F)F)nn1)=C\CC[C@@]1(C)O[C@@H]21 | 1.45 µM | 2.93 µM | 1.72 µM | 3.44 µM |  |  | 2.15 µM | 5.13 µM | 3.03 µM | 10.9 µM | 1.87 µM | 8.49 µM | 1.85 µM | 3.47 µM | 10.3 µM | 22.6 µM | 1.05 µM | 2.43 µM |  | 
Oc1ccc2oc3ncc(Br)c(-c4ccccc4)c3c2c1 | > 100 µM | > 100 µM | > 100 µM | > 100 µM | > 100 µM | > 100 µM | > 100 µM | > 100 µM | > 100 µM | > 100 µM | > 100 µM | > 100 µM |  |  | > 100 µM | > 100 µM | > 100 µM | > 100 µM | 30.4 µM | > 100 µM
COc1cccc(/C=N/C(/N=C/c2cccc(OC)c2O)c2cccc(OC)c2O)c1O |  | 58.6 µM |  | 35.1 µM |  | 58.9 µM |  | 48.2 µM |  |  |  | > 100 µM |  | 73.9 µM |  | 80 µM |  | > 100 µM |  | 35.1 µM
O=c1c(-c2ccccc2)coc2cc(OC/C(=N/O)c3ccccc3)ccc12 | 21.8 µM | 43.5 µM | 10.9 µM | 24.6 µM | 3.03 µM | 9.03 µM | 14.4 µM | 39.7 µM | 12.4 µM | > 100 µM | 13.8 µM | 53 µM | 10.1 µM | 27.2 µM | 29.5 µM | 74.9 µM | 16.2 µM | 39.6 µM |  | 
COc1cc2c(cc1OC)/C(=C\c1ccccc1N)C(=O)OC2 |  | 34.7 µM |  | 32.6 µM |  | 34.3 µM |  | 55.4 µM |  | 8.24 µM |  | 10.3 µM |  | 47.2 µM |  | 29.3 µM |  | 27.2 µM |  | 
CSc1nc(SC)c2c(CO)c(Br)n(Cc3ccccc3)c2n1 |  | 44.7 µM |  | > 100 µM |  |  |  | > 100 µM |  | > 100 µM |  | > 100 µM |  | > 100 µM |  | 40.9 µM |  | > 100 µM |  | > 100 µM
CC(=O)OCC1OC(n2c(-c3ccc(C)cc3)cc(-c3ccccc3)c(C#N)c2=O)C(OC(C)=O)C(OC(C)=O)C1OC(C)=O (centres undefined) |  | > 100 µM |  | > 100 µM |  | > 100 µM |  | > 100 µM |  | > 100 µM |  | > 100 µM |  | > 100 µM |  |  |  | > 100 µM |  | 
COC(C)(C)C/C=C/C(C)=C/C=C/C(C)=C\C=C\C(C)=C\C=C\C=C(C)\C=C\C=C(C)\C=C\C=C(C)\C=C\CC(C)(C)OC | > 150 µg/mL | > 150 µg/mL | > 150 µg/mL | > 150 µg/mL | > 150 µg/mL | > 150 µg/mL | > 150 µg/mL | > 150 µg/mL | > 150 µg/mL | > 150 µg/mL | > 150 µg/mL | > 150 µg/mL | > 150 µg/mL | > 150 µg/mL |  |  | > 150 µg/mL | > 150 µg/mL |  | 
CCOC(=O)c1[nH]c(COC(C)=O)c2c1CCCCCCCCCC2 |  |  |  | > 100 µM |  | > 100 µM |  | > 100 µM |  | > 100 µM |  | > 100 µM |  | > 100 µM |  | > 100 µM |  | > 100 µM |  | > 100 µM
CN(C)CCCNC(=O)c1cc(NC(=O)c2cc(NC(=O)CCNS(=O)(=O)c3ccc4c(c3)C(=O)c3ccccc3C4=O)cn2C)cn1C |  |  | > 100 µM | > 100 µM | > 100 µM | > 100 µM |  |  | > 100 µM | > 100 µM | > 100 µM | > 100 µM | > 100 µM | > 100 µM | > 100 µM | > 100 µM |  |  | 85.9 µM | > 100 µM
